Assay results taken from ChEMBL document CHEMBL5614367, “Hydroxamic acid hybrids: Histone deacetylase inhibitors with anticancer therapeutic potency” (Eur J Med Chem, 2023).

Legend:
[1] = target: T1, Protein deacetylase HDAC6 (Homo sapiens, UniProt Q9UBN7); assay: Inhibition of HDAC6 (unknown origin) using ZMAL (Z-Lys(Ac)-AMC as fluorogenic substrate pre-incubated for 15 mins followed by susbtrate addition and measured for 45 mins by fluorescence based analysis
T1 sequence (Q9UBN7 whole entry): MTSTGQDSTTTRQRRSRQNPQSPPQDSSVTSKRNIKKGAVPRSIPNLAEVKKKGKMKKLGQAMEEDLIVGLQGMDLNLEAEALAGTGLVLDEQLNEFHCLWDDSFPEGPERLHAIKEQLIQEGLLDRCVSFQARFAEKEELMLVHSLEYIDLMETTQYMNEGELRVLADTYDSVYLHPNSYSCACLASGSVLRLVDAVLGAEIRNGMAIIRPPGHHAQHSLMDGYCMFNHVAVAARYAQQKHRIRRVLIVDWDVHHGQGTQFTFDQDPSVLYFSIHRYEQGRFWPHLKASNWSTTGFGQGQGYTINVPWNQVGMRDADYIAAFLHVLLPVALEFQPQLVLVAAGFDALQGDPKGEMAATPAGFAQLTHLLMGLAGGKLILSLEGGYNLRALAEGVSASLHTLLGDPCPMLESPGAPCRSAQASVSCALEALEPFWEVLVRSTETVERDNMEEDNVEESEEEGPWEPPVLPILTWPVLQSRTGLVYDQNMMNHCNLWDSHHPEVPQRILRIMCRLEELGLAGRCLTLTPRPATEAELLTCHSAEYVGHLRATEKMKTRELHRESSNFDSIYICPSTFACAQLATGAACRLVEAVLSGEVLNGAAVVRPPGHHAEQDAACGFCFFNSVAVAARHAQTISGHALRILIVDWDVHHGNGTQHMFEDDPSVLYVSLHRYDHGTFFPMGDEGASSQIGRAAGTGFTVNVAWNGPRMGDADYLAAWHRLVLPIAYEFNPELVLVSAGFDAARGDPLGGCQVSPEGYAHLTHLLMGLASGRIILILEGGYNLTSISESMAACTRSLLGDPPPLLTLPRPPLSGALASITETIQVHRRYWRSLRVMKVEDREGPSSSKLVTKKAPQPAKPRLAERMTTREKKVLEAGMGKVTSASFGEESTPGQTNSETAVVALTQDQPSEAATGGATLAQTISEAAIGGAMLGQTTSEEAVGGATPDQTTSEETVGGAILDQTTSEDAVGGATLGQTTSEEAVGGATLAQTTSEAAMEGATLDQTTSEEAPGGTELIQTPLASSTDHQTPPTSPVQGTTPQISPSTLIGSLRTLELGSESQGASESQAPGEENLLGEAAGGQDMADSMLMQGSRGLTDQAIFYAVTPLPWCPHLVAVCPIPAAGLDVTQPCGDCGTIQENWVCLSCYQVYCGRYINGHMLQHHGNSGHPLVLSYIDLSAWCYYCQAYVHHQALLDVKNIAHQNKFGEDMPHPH

[2] = system: SH-SY5Y; assay: Antiproliferative activity against human SH-SY5Y cells by MTT assay; assay type: functional, cell-based
[3] = system: HT-29; assay: Antiproliferative activity against human HT-29 cells assessed as reduction in cell growth by MTT assay; assay type: functional, cell-based
[4] = Metabolic stability in human liver microsomes assessed as half life incubated for 60 mins in presence of NADPH by LC-MS/MS analysis; assay type: ADME, Microsome
[5] = target: T2, Histone deacetylase 1 (Homo sapiens, UniProt Q13547); assay: Inhibition of HDAC1 (unknown origin) using 6-carboxyfluorescein peptide as substrate incubated for 18 hrs by fluorescence based assay
T2 sequence (Q13547 whole entry): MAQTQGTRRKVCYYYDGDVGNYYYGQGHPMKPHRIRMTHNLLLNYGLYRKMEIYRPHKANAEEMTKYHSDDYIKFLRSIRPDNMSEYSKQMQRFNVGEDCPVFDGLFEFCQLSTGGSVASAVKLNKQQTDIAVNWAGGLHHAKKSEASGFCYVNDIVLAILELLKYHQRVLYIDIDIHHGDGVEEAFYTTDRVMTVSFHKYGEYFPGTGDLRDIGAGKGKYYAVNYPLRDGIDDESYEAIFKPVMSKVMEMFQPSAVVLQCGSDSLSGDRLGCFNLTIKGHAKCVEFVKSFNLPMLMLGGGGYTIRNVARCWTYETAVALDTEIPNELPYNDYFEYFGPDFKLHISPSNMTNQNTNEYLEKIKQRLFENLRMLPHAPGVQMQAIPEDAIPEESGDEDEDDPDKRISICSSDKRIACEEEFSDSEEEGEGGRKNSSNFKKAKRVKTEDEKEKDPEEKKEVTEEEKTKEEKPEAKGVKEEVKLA

[6] = target: T3, Histone deacetylase 2 (Homo sapiens, UniProt Q92769); assay: Inhibition of HDAC2 (unknown origin) using 6-carboxyfluorescein peptide as substrate incubated for 18 hrs by fluorescence based assay
T3 sequence (Q92769 whole entry): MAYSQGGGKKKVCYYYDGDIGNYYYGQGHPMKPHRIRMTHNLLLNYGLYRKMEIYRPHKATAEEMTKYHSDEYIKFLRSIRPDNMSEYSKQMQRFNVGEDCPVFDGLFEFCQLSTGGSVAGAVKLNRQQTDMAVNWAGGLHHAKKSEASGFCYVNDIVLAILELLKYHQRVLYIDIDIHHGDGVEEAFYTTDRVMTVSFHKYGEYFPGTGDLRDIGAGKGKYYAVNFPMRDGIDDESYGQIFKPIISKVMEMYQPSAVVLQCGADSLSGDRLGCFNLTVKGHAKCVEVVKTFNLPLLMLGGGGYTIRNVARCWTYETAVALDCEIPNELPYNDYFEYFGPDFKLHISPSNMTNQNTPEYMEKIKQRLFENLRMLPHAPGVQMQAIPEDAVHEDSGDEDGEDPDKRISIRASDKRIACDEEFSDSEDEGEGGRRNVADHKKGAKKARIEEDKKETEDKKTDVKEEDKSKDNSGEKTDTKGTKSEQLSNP

[7] = target: T1, Protein deacetylase HDAC6; assay: Inhibition of HDAC6 (unknown origin) using 6-carboxyfluorescein peptide as substrate incubated for 18 hrs by fluorescence based assay
[8] = Metabolic stability in mouse liver microsomes assessed as half life incubated for 60 mins in presence of NADPH by LC-MS/MS analysis; assay type: ADME, Microsome
[9] = system: U-87 MG; assay: Antitumor activity against human U87 cells xenografted in mouse assessed as tumor growth inhibition at 20 mg/kg, po relative to control; assay type: functional, U-87MG ATCC; settings: read-out: TGI
[10] = system: A549; assay: Antiproliferative activity against human A549 cells assessed as inhibition of cell growth measured after 72 hrs by MTT assay; assay type: functional, cell-based; settings: A549, 72 h, pooled result: one value given for 8 cell lines, strains, targets or settings
[11] = Metabolic stability in rat liver microsomes assessed as half life incubated for 60 mins in presence of NADPH by LC-MS/MS analysis; assay type: ADME, Microsome
[12] = Oral bioavailability in female […] at 10 mg/kg; assay type: ADME, organism-based; settings: in vivo
[13] = system: CAPAN-1; assay: Antitumor activity against human CAPAN-1 cells xenografted in mouse assessed as tumor growth inhibition at 50 mg/kg, ip in presence of vorinostat relative to control; assay type: functional; settings: read-out: TGI
[14] = system: CAPAN-1; assay: Antitumor activity against human CAPAN-1 cells xenografted in mouse assessed as tumor growth inhibition at 50 mg/kg, ip relative to control; assay type: functional; settings: read-out: TGI
[15] = target: T3, Histone deacetylase 2; assay: Inhibition of HDAC2 (unknown origin) using Boc-Lys-(Ac)-AMC as substrate incubated for 60 mins by fluorescence based analysis
[16] = Antiproliferative activity against human MCF-10F cells assessed as reduction in cell viability incubated for 48 hrs by MTT assay; assay type: toxicity, cell-based
[17] = system: MDA-MB-231; assay: Antitumor activity against human MDA-MB-231 cells in nude mouse assessed as tumor growth inhibition at 20 mg/kg, ip administered once daily for 30 days relative to control; assay type: functional; settings: MDA-MB-231, 720 h, time 30 day, read-out: TGI
[18] = Antiproliferative activity against human MCF-10A cells assessed as reduction in cell viability incubated for 48 hrs by MTT assay; assay type: toxicity, cell-based
[19] = Antiproliferative activity against human BEAS-2B cells assessed as reduction in cell viability incubated for 48 hrs by MTT assay; assay type: toxicity, cell-based
[20] = system: Ehrlich; assay: Antitumor activity against mouse EAC cells implanted in mouse assessed as reduction in tumor volume at 0.5 mg/kg, ip relative to control; assay type: functional; design: scale not given: the % may be the effect or the level left
[21] = system: MCF7; assay: Antiproliferative activity against human MCF7 cells measured after 24 hrs by MTT assay; assay type: functional, cell-based; settings: MCF7, 24 h
[22] = system: HCT-116; assay: Antiproliferative activity against human HCT-116 cells measured after 24 hrs by MTT assay; assay type: functional, cell-based; settings: HCT-116, 24 h
[23] = system: HeLa; assay: Antiproliferative activity against human HeLa cells measured after 24 hrs by MTT assay; assay type: functional, cell-based
[24] = target: T2, Histone deacetylase 1; assay: Inhibition of human HDAC1 incubated for 30 mins by ELISA; settings: pooled result: one value given for 5 cell lines, strains, targets or settings
[25] = system: Ehrlich; assay: Antitumor activity against mouse EAC cells implanted in mouse assessed as increase in life span at 0.5 mg/kg, ip relative to control; assay type: functional
[26] = system: HepG2; assay: Antiproliferative activity against human HepG2 cells measured after 24 hrs by MTT assay; assay type: functional, cell-based; settings: HepG2, 24 h
[27] = system: U-937; assay: Antiproliferative activity against human U-937 cells assessed as cell growth inhibition by MTT assay; assay type: functional, cell-based
[28] = system: HL-60; assay: Antiproliferative activity against human HL-60 cells assessed as cell growth inhibition by MTT assay; assay type: functional, cell-based
[29] = target: T3, Histone deacetylase 2; assay: Inhibition of human HDAC2 by colorimetric ELISA assay
[30] = system: A549; assay: Antiproliferative activity against human A549 cells assessed as reduction in cell growth measured for 48 hrs by MTT assay; assay type: functional, cell-based; settings: A549, 48 h
[31] = system: HepG2; assay: Antiproliferative activity against human HepG2 cells assessed as reduction in cell growth measured for 48 hrs by MTT assay; assay type: functional, cell-based; settings: HepG2, 48 h
[32] = system: HCT-116; assay: Antiproliferative activity against human HCT-116 cells assessed as reduction in cell growth measured for 48 hrs by MTT assay; assay type: functional, cell-based; settings: HCT-116, 48 h
[33] = target: T2, Histone deacetylase 1; assay: Inhibition of human HDAC1 by colorimetric ELISA assay
[34] = system: MCF7; assay: Antiproliferative activity against human MCF7 cells assessed as reduction in cell growth measured for 48 hrs by MTT assay; assay type: functional, cell-based; settings: MCF7, 48 h
[35] = Antitumor activity against mouse WEHI-3 cells implanted in mouse assessed as reduction in tumor growth at 25 mg/kg, ip relative to control; assay type: functional; design: scale not given: the % may be the effect or the level left
[36] = target: T2, Histone deacetylase 1; assay: Inhibition of HDAC1 (unknown origin)
[37] = target: T1, Protein deacetylase HDAC6; assay: Inhibition of HDAC6 (unknown origin)
[38] = target: Histone deacetylase 4 (Homo sapiens, UniProt P56524); assay: Inhibition of HDAC4 (unknown origin)
Histone deacetylase 4, sequence (P56524 whole entry): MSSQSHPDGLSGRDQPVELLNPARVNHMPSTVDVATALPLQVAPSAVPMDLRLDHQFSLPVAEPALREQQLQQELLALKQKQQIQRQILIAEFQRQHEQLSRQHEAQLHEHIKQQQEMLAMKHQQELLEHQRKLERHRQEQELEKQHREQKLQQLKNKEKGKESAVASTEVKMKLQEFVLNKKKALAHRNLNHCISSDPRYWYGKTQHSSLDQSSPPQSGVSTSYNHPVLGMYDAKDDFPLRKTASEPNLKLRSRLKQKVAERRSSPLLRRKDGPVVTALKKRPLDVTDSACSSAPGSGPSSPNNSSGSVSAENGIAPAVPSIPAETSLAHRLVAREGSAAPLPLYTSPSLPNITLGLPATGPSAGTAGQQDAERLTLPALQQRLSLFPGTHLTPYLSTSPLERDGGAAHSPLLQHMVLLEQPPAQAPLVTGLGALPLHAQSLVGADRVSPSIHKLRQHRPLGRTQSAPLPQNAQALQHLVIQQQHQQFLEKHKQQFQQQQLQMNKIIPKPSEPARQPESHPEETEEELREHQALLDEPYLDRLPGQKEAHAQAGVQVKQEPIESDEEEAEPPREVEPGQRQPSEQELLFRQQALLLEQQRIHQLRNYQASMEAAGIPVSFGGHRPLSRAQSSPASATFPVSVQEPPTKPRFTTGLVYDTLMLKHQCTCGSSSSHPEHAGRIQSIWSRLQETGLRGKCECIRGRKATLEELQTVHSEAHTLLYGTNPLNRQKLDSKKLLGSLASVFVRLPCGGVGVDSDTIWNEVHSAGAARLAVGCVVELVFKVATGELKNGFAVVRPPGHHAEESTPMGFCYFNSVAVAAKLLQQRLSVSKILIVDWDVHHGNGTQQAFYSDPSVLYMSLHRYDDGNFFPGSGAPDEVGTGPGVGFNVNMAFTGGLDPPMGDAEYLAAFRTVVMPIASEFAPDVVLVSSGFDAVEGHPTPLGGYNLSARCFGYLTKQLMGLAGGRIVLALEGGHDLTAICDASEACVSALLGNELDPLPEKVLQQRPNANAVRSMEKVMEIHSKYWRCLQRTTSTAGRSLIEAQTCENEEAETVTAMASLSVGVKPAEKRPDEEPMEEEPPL

[39] = target: T3, Histone deacetylase 2; assay: Inhibition of HDAC2 (unknown origin)
[40] = Antitumor activity against mouse WEHI-3 cells implanted in mouse assessed as survival time at 25 mg/kg, ip (reference value: 16 day); assay type: functional
[41] = target: Histone deacetylase 3 (Homo sapiens, UniProt O15379); assay: Inhibition of HDAC3 (unknown origin)
Histone deacetylase 3, sequence (O15379 whole entry): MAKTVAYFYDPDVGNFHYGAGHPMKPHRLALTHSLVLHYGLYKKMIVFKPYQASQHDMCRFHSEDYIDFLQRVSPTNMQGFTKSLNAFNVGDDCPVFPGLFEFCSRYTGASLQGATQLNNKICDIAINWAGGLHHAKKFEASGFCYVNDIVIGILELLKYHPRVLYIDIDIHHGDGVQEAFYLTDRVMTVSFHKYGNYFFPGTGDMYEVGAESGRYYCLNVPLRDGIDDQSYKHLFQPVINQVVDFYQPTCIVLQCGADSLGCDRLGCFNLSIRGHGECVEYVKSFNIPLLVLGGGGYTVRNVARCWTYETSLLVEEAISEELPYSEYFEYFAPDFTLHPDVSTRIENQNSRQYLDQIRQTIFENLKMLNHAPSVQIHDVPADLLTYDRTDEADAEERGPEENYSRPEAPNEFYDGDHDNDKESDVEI

[42] = Cytotoxicity against human PBMC cells; assay type: toxicity, cell-based
[43] = Cytotoxicity against HEK293T cells; assay type: toxicity, cell-based, HEK-293T; settings: human
[44] = target: Bromodomain-containing protein 4 (Homo sapiens, UniProt O60885); assay: Inhibition of BRD4 (unknown origin)
[45] = system: CAPAN-1; assay: Potency index, ratio of vorinostat IC50 to test compound IC50 for antiproliferative activity against human CAPAN-1 cells; assay type: functional
[46] = system: CAPAN-1; assay: Antiproliferative activity against human CAPAN-1 cells; assay type: functional, cell-based
[47] = system: CAPAN-1; assay: Antitumor activity against human CAPAN-1 cells xenografted in mouse assessed as tumor growth inhibition at 100 mg/kg, ip relative to control; assay type: functional; settings: read-out: TGI
[48] = system: U-251; assay: Antiproliferative activity against human U-251 cells assessed as reduction in cell growth incubated for 72 hrs by MTT assay; assay type: functional, cell-based; settings: U-251, 72 h
[49] = system: U-87 MG; assay: Antiproliferative activity against human U87 cells assessed as reduction in cell growth incubated for 72 hrs by MTT assay; assay type: functional, cell-based, U-87MG ATCC

## Cc1nc(C)c(C(=O)Nc2cccc(C(=O)NO)c2)nc1C
[1]
  IC50: 169 nM
[2]
  IC50: 7630 nM
[3]
  IC50: 4990 nM

## COc1cc(/C=C/C(=O)CC(=O)/C=C/c2ccc(/C=C/C(=O)NO)cc2)ccc1O
[4]
  half-life: 91.6 min
[5]
  IC50: 0.38 nM
[6]
  IC50: 0.38 nM
[7]
  IC50: 0.38 nM
[8]
  half-life: 32.7 min
[9]
  inhibition in vivo at 20 mg/kg: 52.1%
[10]
  IC50: 5330 nM
[11]
  half-life: 40.7 min
[12]
  bioavailability: 40.2%

## Cc1sc2c(c1C)C(c1ccc(Cl)cc1)=N[C@@H](CC(=O)OC(C)(C)C)c1nnc(C)n1-2
[13]
  inhibition in vivo at 50 mg/kg: 57%
[14]
  inhibition in vivo at 50 mg/kg: 41%

## O=C(CCCCCC(=O)N(Cc1ccc(Br)s1)c1ccc(OCCN2CCOCC2)cc1)NO
[15]
  IC50: 3.22 nM
[16]
  IC50 at 48 h: > 100000 nM
[17]
  inhibition in vivo at 20 mg/kg: ~95%
[18]
  IC50 at 48 h: > 100000 nM
[19]
  IC50 at 48 h: > 100000 nM

## CCCC(CCC)C(=O)N[C@@H](Cc1ccccc1)C(=O)NO
[20]
  Activity: ~36%
[21]
  IC50: 9620 nM
[22]
  IC50: 9620 nM
[23]
  IC50: 9620 nM
[24]
  IC50: 2.86 nM
[25]
  ILS at 0.5 mg/kg: 131%
[26]
  IC50: 9620 nM

## O=C(O)CCCc1ccc(N(CCCl)CCCl)cc1 [CHLORAMBUCIL]
[27]
  IC50: 37700 nM
[28]
  IC50: 21100 nM

## COc1cc(/C=C/C(=O)c2ccc(OCCCCCC(=O)NO)cc2)cc(OC)c1OC
[29]
  IC50: 60 nM
[30]
  IC50: 536 nM
[31]
  IC50: 536 nM
[32]
  IC50: 536 nM
[33]
  IC50: 60 nM
[34]
  IC50: 536 nM

## CNCCOc1ccc(-c2cc(=O)c3cc(OCCCCCC(=O)NO)cc(O)c3o2)cc1
[35]
  Activity: ~65%
[36]
  IC50: 30 nM
[37]
  IC50: 30 nM
[38]
  IC50: 30 nM
[39]
  IC50: 30 nM
[40]
  Survival: 27 days
[41]
  IC50: 30 nM
[42]
  IC50: 11600 nM
[43]
  IC50: 9490 nM

## CC1=C(C)C2C(c3ccc(Cl)cc3)=N[C@@H](CC(=O)Nc3ccc(C(=O)NO)cc3)c3nnc(C)n3C2S1 (stereo partly specified)
[36]
  IC50: 21 nM
[44]
  IC50: 11 nM
[45]
  Ratio IC50: 36
[46]
  IC50: 150 nM
[47]
  inhibition in vivo at 100 mg/kg: 87.7%
[14]
  inhibition in vivo at 50 mg/kg: 69%

## O=C(CCCCCNC(=O)c1cc(O)c2c(c1)C(=O)c1cccc(O)c1C2=O)NO
[48]
  IC50: 5500 nM
[49]
  IC50: 5500 nM
